The text below walks through data of patent publication US8871934B2, “Fluorene compound and pharmaceutical use thereof” (Japan Tobacco Inc., priority 2008, dated 2014).

Read-outs that look alike come from different tables or passages of the source.

The assay addresses human PDHK2 (hPDHK2) (Homo sapiens (Human), UniProt Q15119). Nature of the assay: Inhibitory action of PDHK activity in vitro (kinase reaction, residual PDH activity measured). In kind it is biochemical.
Setting [1] is: PDHK inhibitory activity, class symbol of IC50.
Where [2] appears, read: read-out: PDHK inhibitory activity IC50.
The mark [3] stands for this setting: PDHK inhibitory activity (class symbol).

As usually defined, the IC50 is the concentration at which inhibition is half-maximal. `Cn1cc(-c2ccc3c(c2)C(O)(C(F)(F)F)c2ccccc2-3)cn1` (centres unmarked) [compound 377]: the IC50 under setting [1] lay in the range of 100 to 1000 nM and the IC50 under setting [2] is 189 nM.
In the same order, the values of `OCCCCCOc1cc(Cl)c2c(c1)C(O)(C(F)(F)F)c1ccccc1-2` (centres unmarked) [compound 387] are under 100 nM and 63 nM.
On to `O=C(O)C1(n2cc(-c3cc(F)cc4c3-c3ccccc3[C@]4(O)C(F)(F)F)cn2)CCCC1` (stereo in doubt) [compound 549], for which half-maximal inhibition (PDHK inhibitory activity IC50 (μmol/L)) (IC50) was put at 27 nM and the IC50 under setting [1] was under 100 nM.
With `OC1(C(F)(F)F)c2ccccc2-c2ccc(-c3cccc(F)c3)cc21` (centres unmarked) [compound 129], the IC50 reads like this: under setting [1], 100 to 1000 nM; under setting [2], 864 nM.
With `COC(=O)c1ccc2c(c1)C(O)(C(F)(F)F)c1ccccc1-2` (centres unmarked) [compound 23], the 50% inhibitory concentration (IC50) was 100 to 1000 nM under setting [1] and 571 nM under setting [2].
For `O=C(c1cc(-c2cncnc2)c2c(c1)C(O)(C(F)(F)F)c1ccccc1-2)N1CCC1` (centres unmarked) [compound 369] the same measures were under 100 nM and 81 nM.
In the same order, the values of `Cc1cc(Cl)c2c(c1)C(O)(C(F)(F)F)c1ccccc1-2` (centres unmarked) [compound 519] are 100 to 1000 nM and 418 nM.
For the molecule `NC(=O)c1cc(OCCN2CCCOC2=O)cc2c1-c1ccccc1C2(O)C(F)(F)F` (centres unmarked) [compound 612], the IC50 by setting is: under setting [3], under 100 nM; under setting [2], 47 nM.
In the case of `CC(C)(C)OC(=O)N1CCN(c2ccc3c(c2)C(O)(C(F)(F)F)c2ccccc2-3)CC1` (centres unmarked) [compound 163], the IC50 by setting is: under setting [1], 100 to 1000 nM; under setting [2], 232 nM.
In the same order, the values of `OC1(C(F)(F)F)c2ccccc2-c2ccc(-c3cc(Cl)cc(Cl)c3)cc21` (centres unmarked) [compound 266] are over 1000 nM and 1560 nM.
For `OC1(C(F)(F)F)c2ccccc2-c2ccc(N3CCNCC3)cc21` (centres unmarked) [compound 164] the same measures were over 1000 nM and 2750 nM.
For `CCNC(=O)c1ccc2c(c1)C(O)(C(F)(F)F)c1ccccc1-2` (centres unmarked) [compound 315] the same measures were over 1000 nM and 6370 nM.
Turning to `CC(=O)N(C)CCOc1cnc2c(c1)C(O)(C(F)(F)F)c1ccccc1-2` (centres unmarked) [compound 398], the IC50 runs as follows: under setting [1], 100 to 1000 nM; under setting [2], 119 nM.
Regarding `Cc1cc(C(=O)N2CC(OCCO)C2)cc2c1-c1ccccc1C2(O)C(F)(F)F` (single isomer, unassigned) [compound 152], the IC50 is under 100 nM under setting [1] and 54 nM under setting [2].
For `COC(=O)c1cccc2c1-c1ccc(F)cc1C2(O)C(F)(F)F` (centres unmarked) [compound 219] the same measures were over 1000 nM and over 10000 nM.
With `O=C(NCCO)c1ccc2c(c1)C(O)(C(F)(F)F)c1ccccc1-2` (centres unmarked) [compound 310], the IC50 is over 1000 nM under setting [1] and over 10000 nM under setting [2].
For `NC(=O)c1ccc(-c2ccc3c(c2)C(O)(C(F)(F)F)c2ccccc2-3)cc1Cl` (centres unmarked) [compound 239] the same measures were 100 to 1000 nM and 178 nM.
For `COC(=O)c1ccc(F)c2c1-c1ccccc1C2(O)C(F)(F)F` (centres unmarked) [compound 221] the same measures were over 1000 nM and over 10000 nM.
In the same order, the values of `CC(=O)Nc1cccc2c1-c1ccccc1C2(O)C(F)(F)F` (centres unmarked) [compound 19] are over 1000 nM and over 100000 nM.
As for `Cc1cc(-c2cnn(CC(N)=O)c2)c2c(c1)C(O)(C(F)(F)F)c1ccccc1-2` (centres unmarked) [compound 507], the IC50 reads like this: under setting [1], under 100 nM; under setting [2], 26 nM.
`COc1cc(-c2cnn(C(C)(C)CC(=O)O)c2)c2c(c1)C(O)(C(F)(F)F)c1ccccc1-2` (single isomer, unassigned) [compound 614]: the IC50 was under 100 nM under setting [3] and 37 nM under setting [2].
For the molecule `Cn1cc(-c2cc(C(=O)N3CCC(CO)C3)cc3c2-c2ccccc2C3(O)C(F)(F)F)cn1` (centres unmarked) [compound 394], the IC50 is under 100 nM under setting [1] and 58 nM under setting [2].
Regarding `CC(C)Cn1cc(-c2cc(C(N)=O)c3c(c2)C(O)(C(F)(F)F)c2ccccc2-3)cn1` (centres unmarked) [compound 645], the IC50 reads like this: under setting [3], under 100 nM; under setting [2], 37 nM.
For `OCc1cc(-c2cnn(CC3CCCCC3)c2)cc2c1-c1ccccc1C2(O)C(F)(F)F` (single isomer, unassigned) [compound 668] the same measures were under 100 nM and 17 nM.
For the molecule `NC(=O)c1ccc2c(c1)-c1ccccc1C2(O)C(F)(F)F` (centres unmarked) [compound 42], the IC50 runs as follows: under setting [1], over 1000 nM; under setting [2], 5560 nM.
For `O=C1CCCN1CCCOc1ccc2c(c1)C(O)(C(F)(F)F)c1ccccc1-2` (centres unmarked) [compound 395] the same measures were 100 to 1000 nM and 699 nM.
In the same order, the values of `Cn1cc(-c2cc(OCC(=O)N3CC(CO)C3)cc3c2-c2ccccc2C3(O)C(F)(F)F)cn1` (single isomer, unassigned) [compound 474] are under 100 nM and 19 nM.
For `CNC(=O)CCOc1ccc2c(c1)C(O)(C(F)(F)F)c1ccccc1-2` (centres unmarked) [compound 302] the same measures were over 1000 nM and 1170 nM.
Take `CCc1cccc2c1-c1ccccc1C2(O)C(F)(F)F` (centres unmarked) [compound 25]: the IC50 is over 1000 nM under setting [1] and 30900 nM under setting [2].
For `O[C@@H]1CCN(CCOc2ccc3c(c2)C(O)(C(F)(F)F)c2ccccc2-3)C1` (some centres unmarked) [compound 390] the same measures were 100 to 1000 nM and 954 nM.
Consider `CC(CO)(CO)n1cc(-c2cc(F)cc3c2-c2ccccc2C3(O)C(F)(F)F)cn1` (single isomer, unassigned; (+)) [compound 673, (+)-2-[4-(2-fluoro-9-hydroxy-9-trifluoromethyl-9H-fluoren-4-yl)-pyrazol-1-yl]-2-methyl-propane-1,3-diol], for which the IC50 under setting [3] is under 100 nM and the IC50 under setting [2] stood at 22 nM.
In the case of `COc1cc(-c2cnn(CCO)c2)c2c(c1)C(O)(C(F)(F)F)c1ccccc1-2` (centres unmarked) [compound 458], the IC50 by setting is: under setting [1], under 100 nM; under setting [2], 39 nM.
For `CCOc1cc(-c2cnn(CCCC(=O)O)c2)c2c(c1)C(O)(C(F)(F)F)c1ccccc1-2` (single isomer, unassigned) [compound 582] the same measures were under 100 nM and 21 nM.
For `CN(CCOc1cc(-c2cnn(C)c2)c2c(c1)C(O)(C(F)(F)F)c1ccccc1-2)C(=O)C(C)(C)CO` (centres unmarked) [compound 489] the same measures were under 100 nM and 22 nM.
In the same order, the values of `CC1CCN1C(=O)c1ccc2c(c1)C(O)(C(F)(F)F)c1ccccc1-2` (centres unmarked) [compound 90] are 100 to 1000 nM and 474 nM.
Take `CC(C)OC(=O)c1cccc2c1-c1ccccc1C2(O)C(F)(F)F` (centres unmarked) [compound 60]: the IC50 by setting is: under setting [1], over 1000 nM; under setting [2], 2040 nM.
Regarding `O=C(O)c1ccc2c(c1)C(O)(C(F)(F)F)c1ccccc1-2` (centres unmarked) [compound 24], the IC50 reads like this: under setting [1], over 1000 nM; under setting [2], over 100000 nM.
Take `CC(=O)N(C)CCOc1cc(-c2cnn(C)c2)c2c(c1)C(O)(C(F)(F)F)c1ccccc1-2` (centres unmarked) [compound 423]: the half-inhibitory concentration (IC50) reads like this: under setting [1], under 100 nM; under setting [2], 21 nM.
For `Cc1ccncc1-c1cccc2c1-c1ccccc1C2(O)C(F)(F)F` (centres unmarked) [compound 204] the same measures were over 1000 nM and over 10000 nM.
For `CC1CCCN1c1ccc2c(c1)C(O)(C(F)(F)F)c1ccccc1-2` (centres unmarked) [compound 293] the same measures were over 1000 nM and 4950 nM.
